Results as given in ChEMBL document CHEMBL1136617, “Cyclic amidines as benzamide bioisosteres: EPC synthesis and SAR studies leading to the selective dopamine D4 receptor agonist FAUC 312” (Bioorg Med Chem Lett, 2003).

Key:
D(2) dopamine receptor [1] = molecular target: T1, D(2) dopamine receptor (Homo sapiens, UniProt P14416); experiment: biochemical; format: cell-based, CHO
D(4) dopamine receptor [2] = molecular target: T2, D(4) dopamine receptor (Homo sapiens, UniProt P21917); experiment: biochemical; format: cell-based, CHO
T2 sequence (P21917 whole entry): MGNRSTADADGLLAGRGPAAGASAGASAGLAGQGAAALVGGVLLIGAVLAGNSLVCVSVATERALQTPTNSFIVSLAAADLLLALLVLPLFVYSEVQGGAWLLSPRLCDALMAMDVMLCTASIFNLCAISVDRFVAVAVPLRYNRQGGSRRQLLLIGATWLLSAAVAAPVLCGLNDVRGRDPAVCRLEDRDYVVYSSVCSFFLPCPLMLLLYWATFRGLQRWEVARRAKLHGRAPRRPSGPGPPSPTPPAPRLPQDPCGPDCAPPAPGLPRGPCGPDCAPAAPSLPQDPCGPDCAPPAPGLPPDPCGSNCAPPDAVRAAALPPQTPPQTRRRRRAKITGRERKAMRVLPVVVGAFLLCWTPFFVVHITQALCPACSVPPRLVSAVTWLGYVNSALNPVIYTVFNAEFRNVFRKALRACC
Description: In vitro binding affinity to displace [3H]spiperone from the cloned human dopamine receptor D4 in CHO cells

D(1A) dopamine receptor = D(1A) dopamine receptor (Bos taurus, UniProt Q95136); experiment: In vitro Binding affinity towards dopamine D1 receptor using bovine striatal membrane preparations and antagonist [3H]-SCH- 23390; set-up: species or system Striatum
D(2) dopamine receptor [3] = molecular target: T1, D(2) dopamine receptor; experiment: biochemical; format: cell-based, CHO; remark: listed apart in the source
Description: In vitro binding affinity to displace [3H]-spiperone from the cloned human dopamine receptor D2 short in CHO cells

D(3) dopamine receptor [4] = molecular target: T3, D(3) dopamine receptor (Homo sapiens, UniProt P35462); experiment: biochemical
D(4) dopamine receptor [5] = molecular target: T2, D(4) dopamine receptor; experiment: In vitro binding affinity to displace [3H]-spiperone from the cloned human dopamine receptor D4 in CHO cells; format: cell-based
D(2) dopamine receptor [6] = molecular target: T1, D(2) dopamine receptor; experiment: In vitro binding affinity to displace [3H]spiperone from the cloned human dopamine receptor D2 short in CHO cells; format: cell-based
D(3) dopamine receptor [7] = molecular target: T3, D(3) dopamine receptor; experiment: In vitro binding affinity to displace [3H]spiperone from the cloned human dopamine receptor D3 in CHO cells; format: cell-based
D(2) dopamine receptor [8] = molecular target: T1, D(2) dopamine receptor; experiment: In vitro binding affinity to displace [3H]spiperone from the cloned human dopamine receptor D2 long in CHO cells; format: cell-based
[9] = molecular target: T4, D(4) dopamine receptor (Homo sapiens) (UniProt P21917); experiment: In vitro functional assay measuring the [3H]thymidine uptake in growing CHO cells stably expressing the dopamine D4.2 receptor was performed; format: cell-based
T4 sequence (whole entry): T2 sequence (P21917 whole entry)

D(2) dopamine receptor [10] = molecular target: T1, D(2) dopamine receptor; experiment: In vitro ability to displace [3H]spiperone from the cloned human dopamine D2 short receptor expressed in CHO cells; format: cell-based
D(2) dopamine receptor [11] = molecular target: T1, D(2) dopamine receptor; experiment: In vitro ability to displace [3H]spiperone from the cloned human dopamine D2 long receptor expressed in CHO cells; format: cell-based
D(3) dopamine receptor [12] = molecular target: T3, D(3) dopamine receptor; experiment: In vitro ability to displace [3H]spiperone from cloned human dopamine D3 receptor expressed in CHO cells; format: cell-based
D(4) dopamine receptor [13] = molecular target: T2, D(4) dopamine receptor; experiment: Effective concentration for [3H]thymidine uptake in growing CHO cells stably expressing the dopamine D4.2 receptor; format: cell-based
D(4) dopamine receptor [14] = molecular target: T2, D(4) dopamine receptor; experiment: In vitro ability to displace [3H]spiperone from the cloned human dopamine D4 receptor expressed in CHO cells; format: cell-based

T1 sequence (P14416 whole entry): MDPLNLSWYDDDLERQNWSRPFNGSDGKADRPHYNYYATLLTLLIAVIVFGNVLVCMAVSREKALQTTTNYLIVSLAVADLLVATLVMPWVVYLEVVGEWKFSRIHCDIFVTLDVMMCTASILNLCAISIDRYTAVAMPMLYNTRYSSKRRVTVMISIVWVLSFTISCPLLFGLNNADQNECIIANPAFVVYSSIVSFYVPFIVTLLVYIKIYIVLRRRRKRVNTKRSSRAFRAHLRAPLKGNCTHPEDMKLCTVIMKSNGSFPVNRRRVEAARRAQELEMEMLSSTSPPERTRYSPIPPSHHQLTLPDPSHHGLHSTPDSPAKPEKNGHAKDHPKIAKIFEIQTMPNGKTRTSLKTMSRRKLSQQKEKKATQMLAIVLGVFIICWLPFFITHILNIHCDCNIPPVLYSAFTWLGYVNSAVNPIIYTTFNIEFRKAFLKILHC
D(1A) dopamine receptor, sequence (Q95136 whole entry): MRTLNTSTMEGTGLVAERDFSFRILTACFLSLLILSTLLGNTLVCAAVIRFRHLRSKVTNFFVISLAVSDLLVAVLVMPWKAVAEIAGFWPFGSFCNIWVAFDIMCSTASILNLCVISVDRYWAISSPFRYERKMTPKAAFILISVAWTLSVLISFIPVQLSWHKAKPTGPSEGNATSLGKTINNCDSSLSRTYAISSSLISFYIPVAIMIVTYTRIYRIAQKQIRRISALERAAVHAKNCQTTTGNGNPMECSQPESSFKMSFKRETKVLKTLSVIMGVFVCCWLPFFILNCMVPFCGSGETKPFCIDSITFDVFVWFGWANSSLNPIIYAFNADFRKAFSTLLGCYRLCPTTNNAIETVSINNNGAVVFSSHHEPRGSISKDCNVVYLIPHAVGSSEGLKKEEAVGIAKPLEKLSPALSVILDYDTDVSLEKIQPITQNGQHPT
T3 sequence (P35462 whole entry): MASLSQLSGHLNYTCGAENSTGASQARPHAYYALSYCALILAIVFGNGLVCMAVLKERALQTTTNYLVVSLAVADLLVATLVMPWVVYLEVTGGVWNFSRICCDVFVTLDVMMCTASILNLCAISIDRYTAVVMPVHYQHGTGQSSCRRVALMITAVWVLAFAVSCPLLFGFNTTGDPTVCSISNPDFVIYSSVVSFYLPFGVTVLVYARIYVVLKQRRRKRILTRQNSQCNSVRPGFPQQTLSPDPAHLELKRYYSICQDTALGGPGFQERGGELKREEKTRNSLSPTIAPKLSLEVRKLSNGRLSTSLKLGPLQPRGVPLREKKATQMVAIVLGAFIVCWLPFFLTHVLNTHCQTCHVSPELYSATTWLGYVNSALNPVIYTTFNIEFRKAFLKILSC

Ki (D(2) dopamine receptor [1]) [µM] | Ki (D(4) dopamine receptor [2]) [µM] | Ki (D(1A) dopamine receptor) [µM] | Ki (D(2) dopamine receptor [3]) [µM] | Ki (D(3) dopamine receptor [4]) [µM] | Structure (SMILES) | other results
 |  | 39 |  |  | c1ccc(C2=NCC[C@@H](CN3CCN(c4ccccc4)CC3)N2)cc1 | Ki (D(4) dopamine receptor [5]): 0.31 µM; Ki (D(2) dopamine receptor [6]): 30 µM; Ki (D(3) dopamine receptor [7]): 13 µM; Ki (D(2) dopamine receptor [8]): 29 µM
7.3 | 0.46 | 19 | 2.8 | 12 | O=C1C[C@H](CN2CCN(c3ccccc3)CC2)N=C(c2ccccc2)N1 | 
 |  | 29 |  |  | c1ccc(C2=N[C@@H](CN3CCN(c4ccccc4)CC3)CCN2)cc1 | Ki (D(2) dopamine receptor [10]): 32 µM; Ki (D(2) dopamine receptor [11]): 25 µM; Ki (D(3) dopamine receptor [12]): 13 µM; EC50 (D(4) dopamine receptor [13]): 0.05 µM; Ki (D(4) dopamine receptor [14]): 0.0015 µM
18 | 3.7 | 8.9 | 6.4 | 20 | O=C1C[C@@H](CN2CCN(c3ccccc3)CC2)N=C(c2ccccc2)N1 | 

Second part, the compound before the results:

Structure (SMILES) | Ki (D(2) dopamine receptor [1]) [µM] | Ki (D(4) dopamine receptor [2]) [µM] | Ki (D(1A) dopamine receptor) [µM] | Ki (D(2) dopamine receptor [3]) [µM] | Ki (D(3) dopamine receptor [4]) [µM] | other results
c1ccc(C2=NCC(N3CCN(c4ccccc4)CC3)CCN2)cc1 (single isomer, unassigned) | 19 | 4.4 | 23 | 14 | 3.3 | 
COc1ccc(Br)cc1C1=NCC[C@@H](CN2CCN(c3ccccc3)CC2)N1 | 16 | 3.5 | 9.1 | 14 | 1.9 | 
c1ccc(C2=NC[C@H](N3CCN(c4ccccc4)CC3)CCN2)cc1 | 10 | 0.12 | 23 | 4.2 | 12 | 
COc1ccc(Br)cc1C1=NCC[C@H](CN2CCN(c3ccccc3)CC2)N1 | 44 | 1.6 | 15 | 43 | 7.4 | 
c1ccc(C2=NCC[C@H](CN3CCN(c4ccccc4)CC3)N2)cc1 |  |  |  |  |  | Stimulation [9]: 83%
